From the NIST ThermoML archive (doi:10.1021/je030130y)

Experiment: xn = mol fraction of the nth substance listed
Details: 101.3 kPa, Liquid; for viscosity: Capillary tube (Ostwald / Ubbelohde) method; for mass density: Pycnometric method

CN(C)C=O [dimethylformamide] + c1ccccc1
Details | mass density, 298.15 K [kg/m3] | mass density, 303.15 K [kg/m3] | mass density, 308.15 K [kg/m3] | mass density, 313.15 K [kg/m3] | viscosity, 298.15 K [mPa·s] | viscosity, 303.15 K [mPa·s] | viscosity, 308.15 K [mPa·s] | viscosity, 313.15 K [mPa·s]
x1 = 0.1076 | 881.1 | 876 | 870.8 | 865.4 | 0.622 | 0.585 | 0.547 | 0.515
x1 = 0.2069 | 888.4 | 883.5 | 878.4 | 873.3 | 0.641 | 0.603 | 0.564 | 0.531
x1 = 0.3124 | 896.3 | 891.4 | 886.5 | 881.5 | 0.662 | 0.622 | 0.582 | 0.549
x1 = 0.4132 | 904.2 | 899.4 | 894.6 | 889.6 | 0.688 | 0.645 | 0.602 | 0.567
x1 = 0.5148 | 911.7 | 906.9 | 902.2 | 897.2 | 0.712 | 0.67 | 0.627 | 0.592
x1 = 0.6145 | 918.6 | 913.7 | 908.9 | 904 | 0.731 | 0.688 | 0.644 | 0.608
x1 = 0.7093 | 925 | 920.2 | 915.4 | 910.3 | 0.747 | 0.703 | 0.659 | 0.622
x1 = 0.8084 | 931.6 | 927 | 922.2 | 917.2 | 0.763 | 0.718 | 0.673 | 0.636
x1 = 0.8998 | 936.8 | 932.1 | 927.4 | 922.5 | 0.78 | 0.734 | 0.689 | 0.651
x1 = 1 | 944.5 | 939.8 | 935.1 | 930.2 | 0.803 | 0.756 | 0.71 | 0.673
